Results from PubChem BioAssay (NCI).
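Five compound concentrations were applied to cells in 96-well plates for 48 hours; endpoints were derived by simple linear interpolation of the resulting dose-response curve. GI50 = concentration required for 50% inhibition of growth. TGI denotes the concentration required for complete inhibition of growth.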

How the values were obtained:
Assay in all cases: NCI tumour cell line growth inhibition, 48 h
K-562 leukemia = test system: K-562 leukemia
IGROV1 ovarian = test system: IGROV1 ovarian
RPMI-8226 leukemia = test system: RPMI-8226 leukemia
MDA-MB-231 breast = test system: MDA-MB-231 breast
SF-539 CNS = test system: SF-539 CNS
SK-MEL-5 melanoma = test system: SK-MEL-5 melanoma
ACHN renal = test system: ACHN renal
SF-268 CNS = test system: SF-268 CNS
COLO 205 colon = test system: COLO 205 colon
SNB-19 CNS = test system: SNB-19 CNS

Compound | TGI (K-562 leukemia) | TGI (IGROV1 ovarian) | TGI (RPMI-8226 leukemia) | TGI (MDA-MB-231 breast) | TGI (SF-539 CNS) | TGI (SK-MEL-5 melanoma) | TGI (ACHN renal) | TGI (SF-268 CNS) | TGI (COLO 205 colon) | TGI (SNB-19 CNS) | GI50 (K-562 leukemia) | GI50 (IGROV1 ovarian) | GI50 (RPMI-8226 leukemia) | GI50 (MDA-MB-231 breast) | GI50 (SF-539 CNS) | GI50 (SK-MEL-5 melanoma) | GI50 (ACHN renal) | GI50 (SF-268 CNS) | GI50 (COLO 205 colon) | GI50 (SNB-19 CNS)
C[C@@H](CN1CC(=O)NC(=O)C1)N1CC(=O)NC(=O)C1 | 2500 µM | 1440 µM | 2300 µM | 679 µM | 1060 µM | 543 µM | 753 µM | 1160 µM | 296 µM | 1370 µM | – | – | – | – | – | – | – | – | – | –
CC(C)CC(=O)Nc1n[nH]c2c1CN(C(=O)C1CCN(C)CC1)C2(C)C | > 10 µM | > 10 µM | 5.97 µM | > 10 µM | 8.99 µM | 5.7 µM | > 10 µM | > 10 µM | 2.19 µM | > 10 µM | 1.34 µM | 0.579 µM | 0.506 µM | 0.894 µM | 1.78 µM | 0.743 µM | > 10 µM | 1.9 µM | 0.331 µM | 1.05 µM
CN(C)C/C=C/C(=O)Nc1cc2c(Nc3ccc(F)c(Cl)c3F)ncnc2cc1OCCOC(F)F | 11.3 µM | 0.39 µM | 4.68 µM | 6.53 µM | 3.02 µM | 3.39 µM | 1.08 µM | 3.89 µM | 3.55 µM | 11.6 µM | 0.519 µM | < 0.01 µM | 0.921 µM | 0.472 µM | 0.999 µM | 1.6 µM | < 0.01 µM | 0.71 µM | 1.03 µM | 1.57 µM
COc1ccc(/C=C2\CC(C)CC3C2=NN(C(C)=O)C3c2ccc(OC)cc2)cc1 (stereo not given) | 96.3 µM | > 100 µM | 53.2 µM | 35.7 µM | 38.1 µM | 31.3 µM | 39.3 µM | 53.2 µM | 92.5 µM | > 100 µM | 10.1 µM | 31.6 µM | 10.9 µM | 16.4 µM | 19 µM | 13.9 µM | 17.2 µM | 20.8 µM | 25.7 µM | 27.6 µM
O=Cc1ccc(-c2ccc(-c3nc4ccccc4o3)cc2)s1 | > 100 µM | > 100 µM | – | 55.2 µM | – | 45.2 µM | > 100 µM | 81.5 µM | > 100 µM | > 100 µM | 37 µM | 30.1 µM | – | 21.9 µM | – | 21.8 µM | 31.5 µM | 28.4 µM | 32.1 µM | 49.2 µM
CN1CCN(c2cc(C(=O)Nc3cc4cc(-c5cnn(C)c5)ccc4cn3)ccn2)CC1 | > 100 µM | 3.3 µM | – | 3.75 µM | 2.38 µM | 0.331 µM | 0.548 µM | 6.59 µM | 0.494 µM | 12 µM | 0.0727 µM | 0.0581 µM | 0.108 µM | 0.219 µM | 0.153 µM | 0.155 µM | 0.0597 µM | 0.2 µM | 0.0673 µM | 0.121 µM
COc1ccc(-c2nc(C(=O)c3ccccc3)n(CC(=O)c3ccccc3)c2-c2ccc(OC)cc2)cc1 | > 100 µM | > 100 µM | > 100 µM | > 100 µM | > 100 µM | > 100 µM | > 100 µM | > 100 µM | > 100 µM | > 100 µM | > 100 µM | > 100 µM | > 100 µM | > 100 µM | > 100 µM | > 100 µM | > 100 µM | > 100 µM | > 100 µM | > 100 µM
CC(=O)N1c2ccccc2NC2=C(C(=O)N(Cc3ccccc3)C2(C)C)C1c1ccco1 (stereo not given) | > 25 µM | > 25 µM | > 25 µM | > 11.3 µM | 1.17 µM | > 25 µM | > 25 µM | > 25 µM | > 25 µM | > 25 µM | 0.166 µM | 0.893 µM | 0.758 µM | 0.364 µM | 0.395 µM | 0.871 µM | 1.35 µM | 1.28 µM | 0.742 µM | 0.524 µM
C[C@@H]1Cc2c([nH]c3ccccc23)[C@@H](c2c(F)cc(NC3CN(CCCF)C3)cc2F)N1CC(F)(F)CO | 11.8 µM | 10.8 µM | 14.1 µM | 20.8 µM | 15.7 µM | 3.68 µM | 17.1 µM | 19.5 µM | 5.71 µM | 23.6 µM | 3.24 µM | 2.77 µM | 2.82 µM | 5.24 µM | 4.36 µM | 1.92 µM | 4.8 µM | 4.78 µM | 2.35 µM | 10.3 µM
COC(=O)c1c(O)c([N+](=O)[O-])cc2c1c1c(n2Cc2ccccc2)C(=O)c2ccccc2C1=O | 92.6 µM | > 100 µM | 24.9 µM | > 100 µM | 55.3 µM | 14.7 µM | > 100 µM | 76.9 µM | 6.82 µM | 65.3 µM | 19 µM | 35.1 µM | 2.32 µM | 19.9 µM | 18.3 µM | 3.63 µM | 29.8 µM | 8.48 µM | 2.18 µM | 17.1 µM
O=C(/C=N/O)Nc1cc(Cl)c(Cl)cc1Cl | > 100 µM | > 100 µM | 88.8 µM | 60 µM | > 100 µM | 33 µM | > 100 µM | > 100 µM | 87.4 µM | > 100 µM | – | – | – | – | – | – | – | – | – | –
CN(C)c1ncc(-c2ccc(C(F)(F)F)cc2)c(NC2CCCCCC2)n1 | 41.1 µM | > 100 µM | 24.4 µM | 28.8 µM | 55.2 µM | 28.3 µM | 31.2 µM | 96.1 µM | 30.6 µM | 37.5 µM | 14.6 µM | 32.5 µM | 6.51 µM | 13.3 µM | 21.7 µM | 14 µM | 16 µM | 22.7 µM | 14.4 µM | 15.6 µM
CCN(CC)c1ccc2c(c1)Oc1nc(N)c(C#N)c(N)c1C2Sc1ccc(OC)cc1 (stereo not given) | 8.07 µM | 3.9 µM | 5.02 µM | 3.13 µM | 3.04 µM | 2.9 µM | 2.94 µM | 3.58 µM | 3.65 µM | 3.26 µM | 2.61 µM | 1.9 µM | 1.96 µM | 1.6 µM | 1.64 µM | 1.54 µM | 1.59 µM | 1.85 µM | 1.88 µM | 1.8 µM
